What was measured:
[1] = molecular target: Protein arginine N-methyltransferase 5 (Homo sapiens, UniProt O14744); test: Inhibition of PRMT5 (unknown origin) by radiometric-based scintillation proximity assay
[2] = molecular target: Epidermal growth factor receptor (Homo sapiens, UniProt P00533); test: Inhibition of wild type GST-tagged EGFR catalytic domain (unknown origin) expressed in insect cells using poly(Glu-Tyr) as substrate incubated for 6 mins by ELISA; parameters: species or system Insect cell
Chain of Epidermal growth factor receptor (P00533 whole entry, the tested form may be a part): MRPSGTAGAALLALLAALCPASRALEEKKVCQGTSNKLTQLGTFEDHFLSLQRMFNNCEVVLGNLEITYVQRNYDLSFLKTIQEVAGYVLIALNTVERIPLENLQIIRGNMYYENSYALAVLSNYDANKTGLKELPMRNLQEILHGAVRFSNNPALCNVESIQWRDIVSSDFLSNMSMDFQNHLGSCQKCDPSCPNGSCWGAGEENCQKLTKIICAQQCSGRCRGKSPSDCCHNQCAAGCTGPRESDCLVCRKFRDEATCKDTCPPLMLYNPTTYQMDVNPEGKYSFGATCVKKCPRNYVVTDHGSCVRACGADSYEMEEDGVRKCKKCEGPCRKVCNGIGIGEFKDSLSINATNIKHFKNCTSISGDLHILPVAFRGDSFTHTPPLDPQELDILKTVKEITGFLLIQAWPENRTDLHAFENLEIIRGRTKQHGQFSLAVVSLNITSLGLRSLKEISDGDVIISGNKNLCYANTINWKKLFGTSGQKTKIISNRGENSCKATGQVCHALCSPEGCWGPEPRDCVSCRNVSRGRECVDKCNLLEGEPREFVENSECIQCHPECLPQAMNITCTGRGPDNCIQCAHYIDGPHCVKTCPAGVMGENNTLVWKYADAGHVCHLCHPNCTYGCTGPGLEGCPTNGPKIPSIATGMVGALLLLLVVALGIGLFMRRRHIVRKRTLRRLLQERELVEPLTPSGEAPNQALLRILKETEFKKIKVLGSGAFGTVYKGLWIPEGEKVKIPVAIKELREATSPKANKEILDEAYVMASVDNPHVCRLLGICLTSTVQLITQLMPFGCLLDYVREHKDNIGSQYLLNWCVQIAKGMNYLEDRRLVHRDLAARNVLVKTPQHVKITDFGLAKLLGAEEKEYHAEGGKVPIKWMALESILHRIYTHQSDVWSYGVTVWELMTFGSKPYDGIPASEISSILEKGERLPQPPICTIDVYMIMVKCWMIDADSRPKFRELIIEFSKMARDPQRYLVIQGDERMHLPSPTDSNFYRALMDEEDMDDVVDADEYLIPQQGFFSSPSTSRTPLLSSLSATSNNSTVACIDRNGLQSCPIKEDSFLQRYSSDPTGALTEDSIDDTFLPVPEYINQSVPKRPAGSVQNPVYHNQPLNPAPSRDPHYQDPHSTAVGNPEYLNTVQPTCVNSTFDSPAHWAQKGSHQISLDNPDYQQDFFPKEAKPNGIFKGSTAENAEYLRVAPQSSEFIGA

[3] = Metabolic stability in human liver microsomes assessed as compound remaining at […] measured after 30 mins in presence of NADPH by LC-MS/MS analysis; format: ADME, Microsome; details: read-out: Stability
MCF7 = test: Antiproliferative activity against human MCF7 cells assessed as inhibition of cell growth by CCK-8 assay
A549 = test: Antiproliferative activity against human A549 cells assessed as inhibition of cell growth by CCK-8 assay
[4] = Metabolic stability in rat liver microsomes assessed as compound remaining at […] measured after 30 mins in presence of NADPH by LC-MS/MS analysis; format: ADME, Microsome; details: read-out: Stability
HepG2 = test: Antiproliferative activity against human HepG2 cells assessed as inhibition of cell growth by CCK-8 assay
HeLa = test: Antiproliferative activity against human HeLa cells assessed as inhibition of cell growth by CCK-8 assay
MDA-MB-231 = test: Antiproliferative activity against human MDA-MB-231 cells assessed as inhibition of cell growth by CCK-8 assay
[5] = molecular target: Protein arginine N-methyltransferase 1 (Homo sapiens, UniProt Q99873); test: Inhibition of PRMT1 (unknown origin) using [3H]SAM as substrate preincubated for 15 mins followed by substrate addition and measured after 60 mins by microbeta scintillation counting analysis
Chain of Protein arginine N-methyltransferase 1 (Q99873 whole entry): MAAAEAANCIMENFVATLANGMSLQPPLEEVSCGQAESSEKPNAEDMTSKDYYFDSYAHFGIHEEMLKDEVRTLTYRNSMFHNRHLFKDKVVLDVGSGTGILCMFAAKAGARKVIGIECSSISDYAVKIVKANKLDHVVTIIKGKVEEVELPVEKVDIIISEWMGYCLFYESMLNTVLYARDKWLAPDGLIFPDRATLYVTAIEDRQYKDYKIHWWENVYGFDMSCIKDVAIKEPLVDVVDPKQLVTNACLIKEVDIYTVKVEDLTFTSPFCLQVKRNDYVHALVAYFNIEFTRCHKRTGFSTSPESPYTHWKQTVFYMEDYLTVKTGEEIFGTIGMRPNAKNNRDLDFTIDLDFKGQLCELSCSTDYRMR

[6] = molecular target: T1, Histone-arginine methyltransferase CARM1 (Homo sapiens, UniProt Q86X55); test: Inhibition of PRMT4 (unknown origin) preincubated for 15 mins followed by substrate addition and measured after 60 mins by AlphaLISA assay
T1 sequence (Q86X55 whole entry): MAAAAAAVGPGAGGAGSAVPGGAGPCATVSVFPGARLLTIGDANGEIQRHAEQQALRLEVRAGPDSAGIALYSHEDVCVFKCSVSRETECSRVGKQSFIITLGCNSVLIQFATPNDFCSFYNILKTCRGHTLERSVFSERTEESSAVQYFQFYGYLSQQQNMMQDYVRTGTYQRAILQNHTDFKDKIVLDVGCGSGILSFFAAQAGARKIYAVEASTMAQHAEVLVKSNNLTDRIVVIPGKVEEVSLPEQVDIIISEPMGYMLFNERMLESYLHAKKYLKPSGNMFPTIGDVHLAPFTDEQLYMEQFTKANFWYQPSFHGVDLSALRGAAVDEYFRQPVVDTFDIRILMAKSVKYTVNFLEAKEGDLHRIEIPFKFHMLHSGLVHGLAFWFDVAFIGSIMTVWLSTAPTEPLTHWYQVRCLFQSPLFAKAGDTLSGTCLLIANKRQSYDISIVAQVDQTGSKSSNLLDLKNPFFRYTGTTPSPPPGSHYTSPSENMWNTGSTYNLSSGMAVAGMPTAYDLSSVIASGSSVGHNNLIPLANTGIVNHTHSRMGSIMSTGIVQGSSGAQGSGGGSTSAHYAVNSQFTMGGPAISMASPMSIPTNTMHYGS

Chain of Protein arginine N-methyltransferase 5 (O14744 whole entry, the tested form may be a part): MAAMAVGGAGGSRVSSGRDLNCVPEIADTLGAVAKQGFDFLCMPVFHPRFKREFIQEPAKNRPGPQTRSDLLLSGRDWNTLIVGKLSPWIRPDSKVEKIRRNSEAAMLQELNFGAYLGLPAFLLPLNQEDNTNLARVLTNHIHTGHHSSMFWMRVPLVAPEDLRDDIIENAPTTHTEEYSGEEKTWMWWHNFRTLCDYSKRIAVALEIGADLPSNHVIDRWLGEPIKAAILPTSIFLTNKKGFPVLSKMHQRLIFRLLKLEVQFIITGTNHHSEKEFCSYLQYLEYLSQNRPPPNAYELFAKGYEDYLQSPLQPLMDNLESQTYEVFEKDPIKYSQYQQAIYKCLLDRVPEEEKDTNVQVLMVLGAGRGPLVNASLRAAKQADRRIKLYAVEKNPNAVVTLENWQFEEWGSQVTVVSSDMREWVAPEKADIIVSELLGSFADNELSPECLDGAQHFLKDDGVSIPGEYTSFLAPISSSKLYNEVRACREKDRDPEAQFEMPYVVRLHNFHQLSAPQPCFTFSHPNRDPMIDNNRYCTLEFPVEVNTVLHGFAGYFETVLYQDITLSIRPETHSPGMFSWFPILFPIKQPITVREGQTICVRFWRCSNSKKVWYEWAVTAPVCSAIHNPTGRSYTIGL

IC50 [1]	IC50 [2]	Structure (SMILES)	other results
> 100 µM		O=C(Nc1ccc(C2NCCc3c2[nH]c2ccccc32)cc1)c1cc(C(F)(F)F)cc(C(F)(F)F)c1 (centres undefined)	
> 100 µM	> 100 µM	CN1CCc2c([nH]c3ccccc23)C1c1ccc(NC(=O)c2ccccc2)cc1 (centres undefined)	
> 100 µM		O=C(Nc1ccc(C2NCCc3c2[nH]c2ccccc32)cc1)c1ccc(Br)cc1 (centres undefined)	
70.4 µM	80.6 µM	COc1cc(C2NCCc3c2[nH]c2ccccc32)ccc1OCc1ccc(C#N)cc1F (centres undefined)	remaining at 0.5 h [3]: 40.6%; IC50 (MCF7): 13.1 µM; IC50 (A549): 12.8 µM; remaining at 0.5 h [4]: 35.9%; IC50 (HepG2): > 50 µM; IC50 (HeLa): 13.3 µM; IC50 (MDA-MB-231): 6.2 µM
> 100 µM		O=C(Nc1ccc(C2NCCc3c2[nH]c2ccccc32)cc1)c1ccc(Cl)cc1 (centres undefined)	
> 100 µM		O=C(Nc1ccc(C2NCCc3c2[nH]c2ccccc32)cc1)c1ccc(C(F)(F)F)cc1 (centres undefined)	
> 100 µM	> 100 µM	CN1CCc2c([nH]c3ccccc23)C1c1ccc(NC(=O)c2cccc(Cl)c2)cc1 (centres undefined)	
> 100 µM	> 100 µM	CN1CCc2c([nH]c3ccccc23)C1c1ccc(NC(=O)c2ccc(F)c(C(F)(F)F)c2)cc1 (centres undefined)	
42.8 µM	25.4 µM	COc1cc(C2NCCc3c2[nH]c2ccccc32)ccc1OCc1ccc(C(C)(C)C)cc1 (centres undefined)	remaining at 0.5 h [3]: 50.6%; IC50 (MCF7): 3.82 µM; IC50 (A549): 12.4 µM; remaining at 0.5 h [4]: 45.4%; IC50 (HepG2): 26.4 µM; IC50 (HeLa): 4.43 µM; IC50 (MDA-MB-231): 20.5 µM
46.9 µM	62.4 µM	COc1cc(C2NCCc3c2[nH]c2ccccc32)ccc1OCc1ccc(OC(F)(F)F)c(Cl)c1 (centres undefined)	remaining at 0.5 h [3]: 70%; IC50 (MCF7): 6.59 µM; IC50 (A549): 13.1 µM; remaining at 0.5 h [4]: 76.6%; IC50 (HepG2): 40.4 µM; IC50 (HeLa): 6.92 µM; IC50 (MDA-MB-231): 13.3 µM
21.3 µM	52 µM	COC(=O)c1ccc(COc2ccc(C3NCCc4c3[nH]c3ccccc43)cc2OC)cc1 (centres undefined)	remaining at 0.5 h [3]: 10.3%; IC50 (MCF7): 13.7 µM; IC50 (A549): 18.7 µM; IC50 [5]: > 100 µM; remaining at 0.5 h [4]: 5.2%; IC50 (HepG2): > 50 µM; IC50 (HeLa): 13.4 µM; IC50 [6]: > 100 µM; IC50 (MDA-MB-231): > 50 µM
> 100 µM		COC(=O)c1ccc(C(=O)Nc2ccc(C3NCCc4c3[nH]c3ccccc43)cc2)cc1 (centres undefined)	
59.7 µM	51.5 µM	O=C(Oc1ccc(C2NCCc3c2[nH]c2ccccc32)cc1)c1ccccc1 (centres undefined)	remaining at 0.5 h [3]: 16.4%; remaining at 0.5 h [4]: 12.3%
23.2 µM	> 100 µM	COc1cc(COc2ccc(C3NCCc4c3[nH]c3ccccc43)cc2OC)ccc1F (centres undefined)	

More lines, now with the values behind:

Structure (SMILES)	IC50 [1]	IC50 [2]	other results
COC(=O)c1ccc(COc2ccc(C3NCCc4c3[nH]c3ccccc43)cc2OC)c(F)c1 (centres undefined)	> 100 µM	55.6 µM	
Cc1ccccc1C(=O)Nc1ccc(C2NCCc3c2[nH]c2ccccc32)cc1 (centres undefined)	> 100 µM		
CN1CCc2c([nH]c3ccccc23)C1c1ccc(NC(=O)c2cccc(F)c2)cc1 (centres undefined)	> 100 µM	> 100 µM	
CN1CCc2c([nH]c3ccccc23)C1c1ccc(NC(=O)c2cccc(C(F)(F)F)c2)cc1 (centres undefined)	> 100 µM	> 100 µM	
O=C(Nc1ccc(C2NCCc3c2[nH]c2ccccc32)cc1)c1ccc([N+](=O)[O-])cc1 (centres undefined)	> 100 µM		
CN1CCc2c([nH]c3ccccc23)C1c1ccc(NC(=O)c2cccc([N+](=O)[O-])c2)cc1 (centres undefined)	> 100 µM	> 100 µM	
COc1cc(C2NCCc3c2[nH]c2ccccc32)ccc1OCc1ccc(F)c(Br)c1 (centres undefined)	41.3 µM	51.4 µM	remaining at 0.5 h [3]: 65.4%; IC50 (MCF7): 7 µM; IC50 (A549): 7.08 µM; remaining at 0.5 h [4]: 57.8%; IC50 (HepG2): 36 µM; IC50 (HeLa): 6.86 µM; IC50 (MDA-MB-231): > 50 µM
O=C(Nc1ccc(C2NCCc3c2[nH]c2ccccc32)cc1)c1ccc(F)c(C(F)(F)F)c1 (centres undefined)	66.4 µM	> 100 µM	
COc1cc(C2c3[nH]c4ccccc4c3CCN2C)ccc1OC(=O)c1ccccc1 (centres undefined)	> 100 µM	87.6 µM	
O=C(Nc1ccc(C2NCCc3c2[nH]c2ccccc32)cc1)c1ccccc1F (centres undefined)	> 100 µM		
Cc1cccc(C(=O)Nc2ccc(C3NCCc4c3[nH]c3ccccc43)cc2)c1 (centres undefined)	> 100 µM		
COc1cc(C2NCCc3c2[nH]c2ccccc32)ccc1OCc1ccc(F)cc1 (centres undefined)	> 100 µM	> 100 µM	
O=C(Nc1ccc(C2NCCc3c2[nH]c2ccccc32)cc1)c1cccc([N+](=O)[O-])c1 (centres undefined)	78.9 µM	60.3 µM	
O=C(Nc1ccc(C2NCCc3c2[nH]c2ccccc32)cc1)c1cccc(C(F)(F)F)c1 (centres undefined)	87.3 µM	73.7 µM	
COc1cc(C2NCCc3c2[nH]c2ccccc32)ccc1OCc1ccc(F)c(C(F)(F)F)c1 (centres undefined)	> 100 µM	> 100 µM	
COc1cc(C2NCCc3c2[nH]c2ccccc32)ccc1OCc1ccccc1 (centres undefined)	32.4 µM	> 100 µM	
COc1cc(C2NCCc3c2[nH]c2ccccc32)ccc1OCc1ccc(F)cc1Br (centres undefined)	36.8 µM	74.4 µM	remaining at 0.5 h [3]: 61.1%; IC50 (MCF7): 7.46 µM; IC50 (A549): 13.3 µM; remaining at 0.5 h [4]: 66.5%; IC50 (HepG2): > 50 µM; IC50 (HeLa): 7.15 µM; IC50 (MDA-MB-231): 12.9 µM
COc1cc(C2NCCc3c2[nH]c2ccccc32)ccc1OC(=O)c1ccccc1 (centres undefined)	48.7 µM	42.7 µM	remaining at 0.5 h [3]: 20.6%; remaining at 0.5 h [4]: 15.1%
O=C(Nc1ccc(C2NCCc3c2[nH]c2ccccc32)cc1)c1ccccc1 (centres undefined)	74.5 µM	56.3 µM	
COc1cc(C2NCCc3c2[nH]c2ccccc32)ccc1OCc1ccc(F)c(C#N)c1 (centres undefined)	> 100 µM	> 100 µM	
O=C(Nc1ccc(C2NCCc3c2[nH]c2ccccc32)cc1)c1cccc(Cl)c1 (centres undefined)	46.3 µM		
COc1cc(C2NCCc3c2[nH]c2ccccc32)ccc1OCc1ccc(B2OC(C)(C)C(C)(C)O2)cc1 (centres undefined)	> 100 µM	85.8 µM	
O=C(Nc1ccc(C2NCCc3c2[nH]c2ccccc32)cc1)c1cccc(F)c1 (centres undefined)	71.8 µM	95.2 µM	
O=C(Nc1ccc(C2NCCc3c2[nH]c2ccccc32)cc1)c1ccc(F)cc1 (centres undefined)	> 100 µM		
COc1cc(C2NCCc3c2[nH]c2ccccc32)ccc1OCc1ccc(F)cc1Cl (centres undefined)	76.4 µM	> 100 µM	
COc1cc(C2NCCc3c2[nH]c2ccccc32)ccc1OCc1ccccc1F (centres undefined)	55.7 µM	> 100 µM	
CN1CCc2c([nH]c3ccccc23)C1c1ccc(OC(=O)c2ccccc2)cc1 (centres undefined)	> 100 µM	> 100 µM	

Source: ChEMBL document CHEMBL5506008, “Synthesis and biological evaluation of 1-phenyl-tetrahydro-β-carboline-based first dual PRMT5/EGFR inhibitors as potential anticancer agents” (Eur J Med Chem, 2024)
